{"source": "patent US4103011A", "about": "“Novel penicillin compounds and process for preparation thereof” (priority 1976, dated 1978)", "key": {"Escherichia coli P-5101": {"system": "Escherichia coli P-5101", "experiment": "In vivo efficacy against systemic infection", "design": "species or system male mice (ddY)", "conditions": "P5101, in Mus musculus, 168 h, twice, about 5 minutes and 6 hours after infection, read-out: ED50 (median effective dose)", "outline": "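Male ddY mice of about 20g were infected intraperitoneally with E. coli P-5101 suspended in tryptosoy broth. Compounds dissolved in deionized water were given twice, about 5 minutes and 6 hours after infection. Effective dose was calculated by the Behrens-Kaerber method.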"}, "Plasma level in mice": {"experiment": "Plasma level in mice", "format": "in vivo, male mice (ddY)", "protocol": "The contents of the vials (No. A) obtained in Example 17 were dissolved in deionized water to form solutions of compound 1 in a concentration of 100 mg/ml. The solutions were intramuscularly (im) administered to twenty four male mice (ddY) having an average body weight of 26 g at a dose of 25 mg/kg.\nBlood was taken by cardiac puncture from four mice ech 0.25, 0.5, 1, 2, 3 and 4 hours after administration, and centrifuged individually to separate the plasma.\nDrug levels were determined by the thin-layer cup-plate method using Escherichia coli Kp as an indicator organism. Plasma was appropriately (to more than 10 times) diluted with a 0.067 M phosphate buffer having a pH of 7.0. A standard calibration line was prepared in the same buffer."}, "in vivo": {"experiment": "in vivo", "conditions": "mouse"}, "[1]": {"experiment": "Urinary excretion in mice", "format": "in vivo, male mice (ddY)", "conditions": "for a: amount in urine: 4 mice, total body weight 101.8 g", "protocol": "The contents of the vials (No. A) obtained in Example 17 were dissolved in deionized water to form solutions of penicillin compound 1 in a concentration of 25 mg/ml. The solutions were administered in a dose of 25 mg/kg (im) to four male mice (ddY) having an average body weight of 25 g. After given periods of time, the urine was collected from the four mice, and the concentration of the penicillin compound 1 in the urine was determined.\nUrine was collected by using a metabolism cage for 3, 6, and 24 hours after administration. The pooled urine was diluted with a 0.067M phosphate buffer (pH 7.0) before assay to 500 times for the 0-3 hour urine, 100 times for the 3-6 hour urine and 10 times for the 6-24 hour urine.\nThe levels of compound 1 were determined by the thin-layer cup-plate method using Escherichia coli Kp as an indicator microorganism and a standard calibration line was prepared in a 0.067M phosphate buffer (pH 7.0)."}, "[2]": {"conditions": "after parenteral administration"}}, "note": "Where a name gives a salt, the structure may show the parent alone. Read-outs that look alike come from different tables or passages of the source."}
{"smiles": "CC1(C)S[C@@H]2[C@H](NC(=O)[C@H](NC(=O)c3c[nH]c4nc(N5CCN(C=O)CC5)ncc4c3=O)c3ccc(O)cc3)C(=O)N2[C@H]1C(=O)O", "note": "[Compound 1, D-α-[5,8-Dihydro-2-(4-formyl-1-piperazinyl)-5-oxopyrido[2,3-d]pyrimidine-6-carboxamido]-p-hydroxybenzyl-penicillin sodium salt]", "values": [{"measurement": "ED50", "setting": "Escherichia coli P-5101; iv", "value": 2.9, "unit": "mg/kg"}, {"measurement": "ED50", "setting": "Escherichia coli P-5101; sc", "value": 3.7, "unit": "mg/kg"}, {"measurement": "plasma level (in words)", "setting": "Plasma level in mice; [2]", "value": "much the same concentration as the MIC"}, {"measurement": "concentration at 0.25 h", "setting": "Plasma level in mice; mouse, plasma, 25 mg/kg, im, single dose, 0.25 hour, read-out: Average plasma conc.", "value": 27400, "unit": "ng/mL"}, {"measurement": "concentration at 0.5 h", "setting": "Plasma level in mice; mouse, plasma, 25 mg/kg, im, single dose, 0.5 hour, read-out: Average plasma conc.", "value": 21500, "unit": "ng/mL"}, {"measurement": "concentration at 1 h", "setting": "Plasma level in mice; mouse, plasma, 25 mg/kg, im, single dose, 1 hour, read-out: Average plasma conc.", "value": 15600, "unit": "ng/mL"}, {"measurement": "concentration at 2 h", "setting": "Plasma level in mice; mouse, plasma, 25 mg/kg, im, single dose, 2 hour, read-out: Average plasma conc.", "value": 9570, "unit": "ng/mL"}, {"measurement": "concentration at 3 h", "setting": "Plasma level in mice; mouse, plasma, 25 mg/kg, im, single dose, 3 hour, read-out: Average plasma conc.", "value": 4010, "unit": "ng/mL"}, {"measurement": "concentration at 4 h", "setting": "Plasma level in mice; mouse, plasma, 25 mg/kg, im, single dose, 4 hour, read-out: Average plasma conc.", "value": 2740, "unit": "ng/mL"}, {"measurement": "LD50 at 168 h", "setting": "in vivo; iv", "value": 4520, "unit": "mg/kg"}, {"measurement": "selectivity ratio", "setting": "in vivo; iv", "value": 1100}, {"measurement": "LD50 at 168 h", "setting": "in vivo; sc", "value": "> 6000", "unit": "mg/kg"}, {"measurement": "selectivity ratio", "setting": "in vivo; sc", "value": "> 3000"}, {"measurement": "a: amount in urine", "setting": "[1]; 25 mg/kg, im, single dose, 0-3 hour", "value": 0.718, "unit": "mg"}, {"measurement": "a: amount in urine", "setting": "[1]; 25 mg/kg, im, single dose, 3-6 hour", "value": 0.0480, "unit": "mg"}, {"measurement": "a: amount in urine", "setting": "[1]; 25 mg/kg, im, single dose, 6-24 hour", "value": 0.0483, "unit": "mg"}, {"measurement": "urinary level (in words)", "setting": "[1]; [2]", "value": "higher than its MIC (μg/ml) values against various bacteria shown in Table I"}, {"measurement": "dose excreted at 3 h", "setting": "[1]; mouse, urine, im, 25 mg/kg, im, single dose, 0-3 hour, read-out: cr: cumulative urinary recovery", "value": 28.2, "unit": "%"}, {"measurement": "dose excreted at 3 h", "setting": "[1]; mouse, urine, im, 25 mg/kg, im, single dose, 0-3 hour, read-out: r: urinary recovery", "value": 28.2, "unit": "%"}, {"measurement": "dose excreted at 6 h", "setting": "[1]; mouse, urine, im, 25 mg/kg, im, single dose, 3-6 hour, read-out: r: urinary recovery", "value": 1.89, "unit": "%"}, {"measurement": "dose excreted at 24 h", "setting": "[1]; mouse, urine, im, 25 mg/kg, im, single dose, 6-24 hour, read-out: r: urinary recovery", "value": 1.9, "unit": "%"}, {"measurement": "dose excreted at 6 h", "setting": "[1]; mouse, urine, im, 25 mg/kg, im, single dose, column 3-6 hour, read-out: cr: cumulative urinary recovery", "value": 30, "unit": "%"}, {"measurement": "dose excreted at 24 h", "setting": "[1]; mouse, urine, im, 25 mg/kg, im, single dose, column 6-24 hour, read-out: cr: cumulative urinary recovery", "value": 31.9, "unit": "%"}, {"measurement": "concentration at 3 h", "setting": "[1]; mouse, urine, 25 mg/kg, im, single dose, 0-3 hour, read-out: c: urinary concentration", "value": 187000, "unit": "ng/mL"}, {"measurement": "concentration at 6 h", "setting": "[1]; mouse, urine, 25 mg/kg, im, single dose, 3-6 hour, read-out: c: urinary concentration", "value": 21500, "unit": "ng/mL"}, {"measurement": "concentration at 24 h", "setting": "[1]; mouse, urine, 25 mg/kg, im, single dose, 6-24 hour, read-out: c: urinary concentration", "value": 7250, "unit": "ng/mL"}]}
